Data as given in ChEMBL document CHEMBL3885881, “DrugMatrix”.

Species: Rattus norvegicus
Assay: DrugMatrix - Regimen: Daily Repeat
Format: toxicity, organism-based, Sprague-Dawley
Parameters: regimen Daily Repeat, gender Male, age 6-8 weeks
Settings: in vivo, sc, route subcutaneous, […]; for ABSOLUTE BASOPHIL / ABSOLUTE EOSINOPHIL / ABSOLUTE LYMPHOCYTE / ABSOLUTE MONOCYTE / ABSOLUTE SEGMENTED NEUTROPHIL / BASOPHIL / EOSINOPHIL / ERYTHROCYTE COUNT / HEMATOCRIT / HEMOGLOBIN / LEUKOCYTE COUNT / LYMPHOCYTE / MEAN CORPUSCULAR HEMOGLOBIN / MEAN CORPUSCULAR HEMOGLOBIN CONCENTRATION / MEAN CORPUSCULAR VOLUME / MONOCYTE / NEUTROPHIL / NUCLEATED RED BLOOD CELLS / PLATELET COUNT: tissue Blood; for ALANINE AMINOTRANSFERASE / ALBUMIN / ALKALINE PHOSPHATASE / ASPARTATE AMINOTRANSFERASE / BLOOD UREA NITROGEN / CARBON DIOXIDE / CHLORIDE / CHOLESTEROL / CREATINE PHOSPHOKINASE / CREATININE / GLUCOSE / LACTATE DEHYDROGENASE / LIPASE / PHOSPHORUS / POTASSIUM / SODIUM / TOTAL BILIRUBIN / TOTAL PROTEIN / URIC ACID: tissue Plasma
[1] = 0.07 mg/kg, 72 h, dose level Low, time 3 day
[2] = 0.07 mg/kg, 120 h, dose level Low, time 5 day
[3] = 72 h, dose 2.5 mg/Kg, dose level High, time 3 day
[4] = 120 h, dose 2.5 mg/Kg, dose level High, time 5 day

Structure (SMILES): CC1(C)O[C@@H]2C[C@H]3[C@@H]4C[C@H](F)C5=CC(=O)C=C[C@]5(C)[C@@]4(F)[C@@H](O)C[C@]3(C)[C@]2(C(=O)CO)O1 [FLUOCINOLONE ACETONIDE]
- ABSOLUTE BASOPHIL [1]: 0 CELLS/uL
- ABSOLUTE EOSINOPHIL [1]: 53 CELLS/uL
- ABSOLUTE LYMPHOCYTE [1]: 3882.67 CELLS/uL
- ABSOLUTE MONOCYTE [1]: 130 CELLS/uL
- ABSOLUTE SEGMENTED NEUTROPHIL [1]: 1667.67 CELLS/uL
- BASOPHIL [1]: 0%
- EOSINOPHIL [1]: 1%
- ERYTHROCYTE COUNT [1]: 5.77 x10E6/uL
- HEMATOCRIT [1]: 37.27%
- HEMOGLOBIN [1]: 13.5 G/DL
- LEUKOCYTE COUNT [1]: 5.73 x10E3/uL
- LYMPHOCYTE [1]: 66%
- MEAN CORPUSCULAR HEMOGLOBIN [1]: 23.4 pg
- MEAN CORPUSCULAR HEMOGLOBIN CONCENTRATION [1]: 36.23 G/DL
- MEAN CORPUSCULAR VOLUME [1]: 64.67 fL
- MONOCYTE [1]: 2.33%
- NEUTROPHIL [1]: 30.67%
- NUCLEATED RED BLOOD CELLS [1]: 0.67 /100WBC
- PLATELET COUNT [1]: 1436 x10E3/uL
- ALANINE AMINOTRANSFERASE [1]: 77.67 u/L
- ALBUMIN [1]: 5.23 G/DL
- ALKALINE PHOSPHATASE [1]: 414.67 u/L
- ASPARTATE AMINOTRANSFERASE [1]: 135.67 u/L
- BLOOD UREA NITROGEN [1]: 21.33 mg/dL
- CARBON DIOXIDE [1]: 24.33 mmol/L
- CHLORIDE [1]: 102 MEQ/L
- CHOLESTEROL [1]: 107 mg/dL
- CREATINE PHOSPHOKINASE [1]: 290 u/L
- CREATININE [1]: 0.31 mg/dL
- GLUCOSE [1]: 275.67 mg/dL
- LACTATE DEHYDROGENASE [1]: 425.33 u/L
- LIPASE [1]: 10.67 u/L
- PHOSPHORUS [1]: 13.03 mg/dL
- POTASSIUM [1]: 5.79 MEQ/L
- SODIUM [1]: 145.07 MEQ/L
- TOTAL BILIRUBIN [1]: 0.27 mg/dL
- TOTAL PROTEIN [1]: 7.07 G/DL
- URIC ACID [1]: 1.47 mg/dL
- ABSOLUTE BASOPHIL [2]: 0 CELLS/uL
- ABSOLUTE EOSINOPHIL [2]: 0 CELLS/uL
- ABSOLUTE LYMPHOCYTE [2]: 1551.33 CELLS/uL
- ABSOLUTE MONOCYTE [2]: 16 CELLS/uL
- ABSOLUTE SEGMENTED NEUTROPHIL [2]: 3699.33 CELLS/uL
- BASOPHIL [2]: 0%
- EOSINOPHIL [2]: 0%
- ERYTHROCYTE COUNT [2]: 6.67 x10E6/uL
- HEMATOCRIT [2]: 40.23%
- HEMOGLOBIN [2]: 14.73 G/DL
- LEUKOCYTE COUNT [2]: 5.27 x10E3/uL
- LYMPHOCYTE [2]: 32%
- MEAN CORPUSCULAR HEMOGLOBIN [2]: 22.1 pg
- MEAN CORPUSCULAR HEMOGLOBIN CONCENTRATION [2]: 36.6 G/DL
- MEAN CORPUSCULAR VOLUME [2]: 60.37 fL
- MONOCYTE [2]: 0.33%
- NEUTROPHIL [2]: 67.67%
- NUCLEATED RED BLOOD CELLS [2]: 1 /100WBC
- PLATELET COUNT [2]: 1631 x10E3/uL
- ALANINE AMINOTRANSFERASE [2]: 131 u/L
- ALBUMIN [2]: 4.93 G/DL
- ALKALINE PHOSPHATASE [2]: 313 u/L
- ASPARTATE AMINOTRANSFERASE [2]: 231.67 u/L
- BLOOD UREA NITROGEN [2]: 20.33 mg/dL
- CARBON DIOXIDE [2]: 24 mmol/L
- CHLORIDE [2]: 102.33 MEQ/L
- CHOLESTEROL [2]: 92.33 mg/dL
- CREATINE PHOSPHOKINASE [2]: 1505.67 u/L
- CREATININE [2]: 0.26 mg/dL
- GLUCOSE [2]: 389.33 mg/dL
- LACTATE DEHYDROGENASE [2]: 225 u/L
- LIPASE [2]: 10 u/L
- PHOSPHORUS [2]: 13.57 mg/dL
- POTASSIUM [2]: 5.94 MEQ/L
- SODIUM [2]: 147.93 MEQ/L
- TOTAL BILIRUBIN [2]: 0.2 mg/dL
- TOTAL PROTEIN [2]: 6.7 G/DL
- URIC ACID [2]: 2.67 mg/dL
- ABSOLUTE BASOPHIL [3]: 0 CELLS/uL
- ABSOLUTE EOSINOPHIL [3]: 0 CELLS/uL
- ABSOLUTE LYMPHOCYTE [3]: 365.67 CELLS/uL
- ABSOLUTE MONOCYTE [3]: 12.67 CELLS/uL
- ABSOLUTE SEGMENTED NEUTROPHIL [3]: 5188.33 CELLS/uL
- BASOPHIL [3]: 0%
- EOSINOPHIL [3]: 0%
- ERYTHROCYTE COUNT [3]: 4.97 x10E6/uL
- HEMATOCRIT [3]: 32.1%
- HEMOGLOBIN [3]: 11.87 G/DL
- LEUKOCYTE COUNT [3]: 5.57 x10E3/uL
- LYMPHOCYTE [3]: 6.67%
- MEAN CORPUSCULAR HEMOGLOBIN [3]: 24.1 pg
- MEAN CORPUSCULAR HEMOGLOBIN CONCENTRATION [3]: 37.03 G/DL
- MEAN CORPUSCULAR VOLUME [3]: 64.97 fL
- MONOCYTE [3]: 0.33%
- NEUTROPHIL [3]: 93%
- NUCLEATED RED BLOOD CELLS [3]: 0.67 /100WBC
- PLATELET COUNT [3]: 1062 x10E3/uL
- ALANINE AMINOTRANSFERASE [3]: 159.67 u/L
- ALBUMIN [3]: 4.33 G/DL
- ALKALINE PHOSPHATASE [3]: 320.67 u/L
- ASPARTATE AMINOTRANSFERASE [3]: 309.33 u/L
- BLOOD UREA NITROGEN [3]: 24.33 mg/dL
- CARBON DIOXIDE [3]: 26 mmol/L
- CHLORIDE [3]: 97 MEQ/L
- CHOLESTEROL [3]: 133 mg/dL
- CREATINE PHOSPHOKINASE [3]: 322 u/L
- CREATININE [3]: 0.18 mg/dL
- GLUCOSE [3]: 463 mg/dL
- LACTATE DEHYDROGENASE [3]: 822 u/L
- LIPASE [3]: 9.67 u/L
- PHOSPHORUS [3]: 10.6 mg/dL
- POTASSIUM [3]: 4.57 MEQ/L
- SODIUM [3]: 142.47 MEQ/L
- TOTAL BILIRUBIN [3]: 0.27 mg/dL
- TOTAL PROTEIN [3]: 5.4 G/DL
- URIC ACID [3]: 1.03 mg/dL
- ABSOLUTE BASOPHIL [4]: 0 CELLS/uL
- ABSOLUTE EOSINOPHIL [4]: 0 CELLS/uL
- ABSOLUTE LYMPHOCYTE [4]: 450 CELLS/uL
- ABSOLUTE MONOCYTE [4]: 219.33 CELLS/uL
- ABSOLUTE SEGMENTED NEUTROPHIL [4]: 11864 CELLS/uL
- BASOPHIL [4]: 0%
- EOSINOPHIL [4]: 0%
- ERYTHROCYTE COUNT [4]: 5.21 x10E6/uL
- HEMATOCRIT [4]: 33.17%
- HEMOGLOBIN [4]: 12.2 G/DL
- LEUKOCYTE COUNT [4]: 12.53 x10E3/uL
- LYMPHOCYTE [4]: 3.67%
- MEAN CORPUSCULAR HEMOGLOBIN [4]: 23.37 pg
- MEAN CORPUSCULAR HEMOGLOBIN CONCENTRATION [4]: 36.87 G/DL
- MEAN CORPUSCULAR VOLUME [4]: 63.37 fL
- MONOCYTE [4]: 1.67%
- NEUTROPHIL [4]: 94.67%
- NUCLEATED RED BLOOD CELLS [4]: 0 /100WBC
- PLATELET COUNT [4]: 587.67 x10E3/uL
- ALANINE AMINOTRANSFERASE [4]: 194 u/L
- ALBUMIN [4]: 3.57 G/DL
- ALKALINE PHOSPHATASE [4]: 289.67 u/L
- ASPARTATE AMINOTRANSFERASE [4]: 380.33 u/L
- BLOOD UREA NITROGEN [4]: 24.33 mg/dL
- CARBON DIOXIDE [4]: 17.67 mmol/L
- CHLORIDE [4]: 95 MEQ/L
- CHOLESTEROL [4]: 90 mg/dL
- CREATINE PHOSPHOKINASE [4]: 1694.33 u/L
- CREATININE [4]: 0.29 mg/dL
- GLUCOSE [4]: 635 mg/dL
- LACTATE DEHYDROGENASE [4]: 429 u/L
- LIPASE [4]: 10 u/L
- PHOSPHORUS [4]: 14.6 mg/dL
- POTASSIUM [4]: 6.12 MEQ/L
- SODIUM [4]: 139.3 MEQ/L
- TOTAL BILIRUBIN [4]: 0.2 mg/dL
- TOTAL PROTEIN [4]: 4.67 G/DL
- URIC ACID [4]: 3.2 mg/dL
